Experimental data taken from paper PMC4055595, “Pharmacokinetic Compatibility of Ginsenosides and Schisandra Lignans in Shengmai-san: From the Perspective of P-Glycoprotein” (PLoS ONE, 2014).
Where two headings read alike, the source gives them in different places.

Legend:
[1] = Transport of digoxin and ginsenosides across Caco-2 cell monolayer (efflux ratio); format: in vitro ADME, human; conditions: human, Caco-2, pH 7.4
Method: (§1) Caco-2 cells were purchased from American Type Culture Collection (Manassas, VA), and were routinely cultured in Dulbecco's modified Eagle's medium supplemented with 10% fetal bovine serum, 1% nonessential amino acids, 1 mM sodium pyruvate, and 100 U/mL penicillin and streptomycin (Invitrogen, Carlsbad, CA). The cells were grown in an atmosphere of 5% CO2 at 37°C, and cell medium was changed every other day. Cells were seeded at a density of 4×10^4 cells per well in 24-well microporous polycarbonate insert filter plates (0.4-µm pore size) (Corning Costar plates; Corning Life Sciences, Lowell, MA) and grown for 15 days in Caco-2 growth medium. The medium was replaced every 3 to 4 days. Before running the assay, the culture medium was replaced by HBSS buffer supplemented with 10 mM Hepes and 20 mM glucose.
(§2) Caco-2 cells with a density of 1.2×10^5 cells/insert were seeded on a permeable polycarbonate insert (Millicell cell culture inserts, 0.4 µm pore size, 12 mm diameter; Millipore Corporation) in 24-well tissue culture plates and were used for the experiment 18 to 21 days after seeding. [^14C]Mannitol permeability and transepithelial electrical resistance measurements (Millicell-ERS epithelial volt-ohm meter; Millipore Corporation) were used to evaluate the integrity of Caco-2 cell monolayer. The monolayer used in transport studies had transepithelial electrical resistance values exceeding 600 Ω·cm^2, and the leakage of mannitol was less than 0.3% of the dose/h. Before transport initiation studies, the cell monolayer was first washed with warm HBSS (pH 7.4) twice. HBSS containing SLE (2.0 and 10.0 µg/mL) or 1% ethanol (control) was then loaded into both apical and basolateral chambers. After incubation at 37°C for 1.5 h, 100 µg/mL of GE was added to either the apical or basolateral side to evaluate the transport in absorptive and secretory directions, and the cell monolayer was incubated for another 2 h. 10 µM verapamil was used as a positive control inhibitor. At the designated time point, samples were taken from the receiving chamber for analysis. Ginsenosides were determined by LC-MS. All experiments were conducted in triplicate.
(§3) For the transport assay, the apparent permeability (P app, cm/s) in each direction (A→B and B→A) was calculated as follows, where A is the surface area of the membrane inserts (0.0804 cm^2), C 0 is the initial concentration of the compound applied in the donor compartment (2 µM), and △Q is the amount (micromoles) of compound transported over time △t (5 h = 18,000 s): [drawing 1]
(§4) The efflux ratio (ER) was a dimensionless number calculated as the ratio of the apparent permeability in the B→A direction divided by the apparent permeability in the A→B direction. [drawing 2]

[2] = molecular target: P-gp (MDR1) (Homo sapiens, UniProt P08183); test: Transport of digoxin and ginsenosides across L-MDR1 cell monolayers (efflux ratio); format: in vitro ADME; conditions: human, read-out: Efflux ratio (Papp BL-AP / Papp AP-BL)
Method: (§5) LLC-PK1 cells, a cell line lacking P-gp, and the derived cell line L-MDR1, which over-express human MDR1-encoded P-gp, were grown in minimum essential medium with supplements at 37°C, 5% CO2, and 95% humidity. LLC-PK1 and L-MDR1 cells were seeded at a density of 12×10^6 cells per 150-cm^2 flask and grown for 7 days in medium 199 supplemented with 2 mM glutamine, 10% fetal bovine serum, 10 mg/500 mL of streptomycin, and 10,000 IU/500 mL of penicillin. To ensure a constant expression level of transport protein, L-MDR1 cells were grown in the presence of 640 nM vincristine. Cells were grown as monolayer on polycarbonate membrane filters (Transwell; Costar Corporation, Cambridge, MA) as outlined previously. Transepithelial resistance was measured in each well using a Millicell ERS ohmmeter (Millipore, Bedford, MA); wells registering a resistance of 200 ohms or greater, after correcting for the resistance obtained in control blank wells, were used in the transport experiments.
(§6) The LLC-PK1 and L-MDR1 cells were washed with warm Hank's balanced salt solution HBSS (pH 7.4) twice before transport experiment. HBSS containing verapamil (10 µM), SLE (2.0 and 10.0 µg/mL) or blank HBSS (control) was then loaded into both apical and basolateral chambers. After incubation at 37°C for 1.5 h, GE (100 µg/mL) was added to either the apical or basolateral side to evaluate the transport in absorptive and secretive directions, respectively. The cell monolayer was then incubated for another 2 h. Finally, the concentrations of ginsenosides were determined by LC/MS. All experiments were conducted in triplicate.
as §3, §4

[3] = molecular target: T1, human MDR1-encoded P-gp (L-MDR1 cells) (Homo sapiens, UniProt P08183); test: as above; format: in vitro ADME; conditions: for Effect of verapamil on efflux ratio / Papp / Effect of SLE on efflux ratio / transport: L-MDR1 cells; for Effect of verapamil on efflux ratio / Papp: 10 µM verapamil; for Effect of SLE on efflux ratio / transport: SLE 2.0 and 10.0 µg/mL; for P-gp substrate classification: summary of transport/uptake in LLC-PK1, L-MDR1 and Caco-2 cells with verapamil
Method: as §5, §6, §3, §4

[4] = tested on: LLC-PK1 cells (lacking P-gp); test: Uptake (intracellular accumulation) of digoxin and ginsenosides in LLC-PK1 cells; format: in vitro ADME; conditions: for Effect of verapamil on intracellular accumulation: 10 µM verapamil; for Effect of SLE on intracellular accumulation: SLE 2.0 and 10.0 µg/mL
Method: as §5
(§7) LLC-PK1 and L-MDR1 cells were incubated with SLE (2.0 and 10.0 µg/mL) or verapamil (10 µM) for 1.0 h, and then were washed to discard SLE or verapamil before adding 100 µg/mL of GE. The accumulation of GE lasted for 2 h, and the intracellular concentrations of ginsenosides were measured by LC/MS. All experiments were conducted in triplicate.

[5] = molecular target: T1, human MDR1-encoded P-gp (L-MDR1 cells); test: Uptake (intracellular concentration) of digoxin and ginsenosides in L-MDR1 cells; format: in vitro ADME
Method: as §5, §7

[6] = tested on: LLC-PK1 cells (lacking P-gp); test: Transport of digoxin and ginsenosides across LLC-PK1 cell monolayers; format: in vitro ADME; conditions: for Effect of verapamil on transport (efflux ratio): 10 µM verapamil; for Effect of SLE on transport (AP→BL, BL→AP): SLE 2.0 and 10.0 µg/mL
Method: as §5, §6, §3, §4

[7] = tested on: Caco-2 cell monolayer; test: Transport of digoxin and ginsenosides across Caco-2 cell monolayer (efflux ratio); format: in vitro ADME, human
Method: as §1, §2, §3, §4

[8] = tested on: Caco-2 cells; test: Uptake of digoxin and ginsenosides in Caco-2 cells; format: in vitro ADME, human
Method: as §1
as §7, with “Caco-2” for “LLC-PK1 and L-MDR1”, “h. Then the cells” for “h, and then”, “washed with Hank's” for “washed”, “the addition” for “adding 100 µg/mL”, “GE (100 µg/mL).” for “GE.”, “ginsenosides” for “GE”

[9] = LLC-PK1, pH 7.4, L-MDR1 cells, control (absence of verapamil), GE 100 µg/mL, 2 h
[10] = LLC-PK1, pH 7.4, L-MDR1 cells, presence of 10 µM verapamil
[11] = LLC-PK1, pH 7.4, with verapamil 10 µM, L-MDR1 cells, presence of 10 µM verapamil

T1 sequence (P08183 whole entry): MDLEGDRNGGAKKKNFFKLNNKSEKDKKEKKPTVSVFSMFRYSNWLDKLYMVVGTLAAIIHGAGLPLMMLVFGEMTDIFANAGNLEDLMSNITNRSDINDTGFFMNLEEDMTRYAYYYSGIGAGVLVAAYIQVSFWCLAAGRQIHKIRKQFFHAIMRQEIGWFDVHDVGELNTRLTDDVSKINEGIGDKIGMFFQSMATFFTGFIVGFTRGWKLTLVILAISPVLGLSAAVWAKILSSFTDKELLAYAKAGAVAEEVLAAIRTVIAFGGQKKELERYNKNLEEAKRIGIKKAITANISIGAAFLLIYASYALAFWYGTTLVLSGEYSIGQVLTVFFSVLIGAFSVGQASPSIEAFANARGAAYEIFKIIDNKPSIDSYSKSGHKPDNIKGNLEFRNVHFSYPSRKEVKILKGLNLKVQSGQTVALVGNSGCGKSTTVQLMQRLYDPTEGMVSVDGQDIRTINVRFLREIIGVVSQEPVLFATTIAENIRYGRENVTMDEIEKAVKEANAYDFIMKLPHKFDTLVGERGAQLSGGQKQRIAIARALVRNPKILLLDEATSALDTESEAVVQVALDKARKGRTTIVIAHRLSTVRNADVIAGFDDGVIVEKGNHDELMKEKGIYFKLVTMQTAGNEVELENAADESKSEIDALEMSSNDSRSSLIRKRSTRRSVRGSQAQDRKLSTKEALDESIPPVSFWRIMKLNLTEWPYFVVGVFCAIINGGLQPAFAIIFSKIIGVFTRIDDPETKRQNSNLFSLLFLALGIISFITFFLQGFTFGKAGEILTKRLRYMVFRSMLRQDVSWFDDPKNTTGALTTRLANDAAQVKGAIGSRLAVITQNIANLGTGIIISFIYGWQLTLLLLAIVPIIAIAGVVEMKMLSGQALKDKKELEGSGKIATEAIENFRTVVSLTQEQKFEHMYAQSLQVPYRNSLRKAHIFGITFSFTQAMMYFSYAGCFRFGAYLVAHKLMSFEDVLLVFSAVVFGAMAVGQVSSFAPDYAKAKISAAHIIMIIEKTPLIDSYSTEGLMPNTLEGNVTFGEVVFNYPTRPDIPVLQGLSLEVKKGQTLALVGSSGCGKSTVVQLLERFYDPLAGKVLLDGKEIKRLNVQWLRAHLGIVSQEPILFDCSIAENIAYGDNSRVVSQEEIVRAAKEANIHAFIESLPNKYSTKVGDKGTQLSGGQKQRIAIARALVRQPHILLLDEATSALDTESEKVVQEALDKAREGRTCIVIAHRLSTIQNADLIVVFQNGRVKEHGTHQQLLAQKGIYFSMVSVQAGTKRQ
Chain of P-gp (MDR1) (P08183 whole entry): as above

SMILES | efflux ratio at 2 h, 100 µg/mL [1] | efflux ratio at 2 h, 100 µg/mL [2, 9] | efflux ratio at 2 h [2, 10] | Effect of verapamil on efflux ratio / Papp [3] | Effect of SLE on efflux ratio / transport [3] | P-gp substrate classification [3] | Effect of verapamil on intracellular accumulation [4] | Effect of SLE on intracellular accumulation [4] | Increase of intracellular concentration by SLE ([5]; 2.0 µg/mL SLE) [fold] | Increase of intracellular concentration by SLE ([5]; 10.0 µg/mL SLE) [fold] | Effect of verapamil on transport (efflux ratio) [6] | Effect of SLE on transport (AP→BL, BL→AP) [6] | efflux ratio at 2 h, 100 µg/mL [2, 11] | Effect of verapamil on efflux ratio ([7]; Caco-2 cells, 10 µM verapamil) | Effect of SLE on BL-AP transport / efflux ratio ([7]; Caco-2 monolayer, SLE 2.0 and 10.0 µg/mL) | Effect of verapamil on uptake ([8]; 10 µM verapamil) | Effect of SLE on intracellular concentration ([8]; SLE 2.0 and 10.0 µg/mL, P<0.01)
CC(C)=CCC[C@](C)(O)[C@H]1CC[C@]2(C)[C@@H]1[C@H](O)C[C@@H]1[C@@]3(C)CC[C@H](O)C(C)(C)[C@@H]3[C@@H](O[C@@H]3O[C@H](CO)[C@@H](O)[C@H](O)[C@H]3O[C@@H]3O[C@@H](C)[C@H](O)[C@@H](O)[C@H]3O)C[C@]12C [Rg2, ginsenoside Rg2] | 4.26 | > 3.5 | 1.52 | significantly decrease of ER | significantly decreased | moderate P-gp substrates | no significant difference | no significant difference | 1.7 | 2.1 | No transport difference | No transport difference |  |  |  |  | 
CC(C)=CCC[C@](C)(O)[C@H]1CC[C@]2(C)[C@@H]1[C@H](O)C[C@@H]1[C@@]3(C)CC[C@H](O)C(C)(C)[C@@H]3[C@@H](O[C@@H]3O[C@H](CO)[C@@H](O)[C@H](O)[C@H]3O)C[C@]12C [Rh1, ginsenoside Rh1] |  | < 2 | 1.6 | almost not affected by verapamil | almost not be affected by SLE | almost could not be transported by P-gp | almost not affected by verapamil |  |  |  | No transport difference |  |  |  |  |  | 
CC(C)=CCC[C@](C)(O[C@@H]1O[C@H](CO)[C@@H](O)[C@H](O)[C@H]1O)[C@H]1CC[C@]2(C)[C@@H]1[C@H](O)C[C@@H]1[C@@]3(C)CC[C@H](O)C(C)(C)[C@@H]3[C@@H](O[C@@H]3O[C@H](CO)[C@@H](O)[C@H](O)[C@H]3O)C[C@]12C [Rg1, ginsenoside Rg1] |  | < 2 |  | almost not affected by verapamil | almost not be affected by SLE | almost could not be transported by P-gp | almost not affected by verapamil |  |  |  | No transport difference |  | 1.16 |  |  |  | 
CC(C)=CCC[C@](C)(O)[C@H]1CC[C@]2(C)[C@@H]1[C@H](O)C[C@@H]1[C@@]3(C)CC[C@H](O[C@@H]4O[C@H](CO)[C@@H](O)[C@H](O)[C@H]4O[C@@H]4O[C@H](CO)[C@@H](O)[C@H](O)[C@H]4O)C(C)(C)[C@@H]3CC[C@]12C [Rg3, ginsenoside Rg3] |  |  |  | significantly decrease of ER | significantly decreased | moderate P-gp substrates | no significant difference | no significant difference | 2.5 | 2.9 | No transport difference | No transport difference |  | decreased significantly | concentration dependently decrease | significantly enhanced | concentration dependently increase
CC(C)=CCC[C@](C)(O[C@@H]1O[C@H](CO)[C@@H](O)[C@H](O)[C@H]1O)[C@H]1CC[C@]2(C)[C@@H]1[C@H](O)C[C@@H]1[C@@]3(C)CC[C@H](O)C(C)(C)[C@@H]3[C@@H](O[C@@H]3O[C@H](CO)[C@@H](O)[C@H](O)[C@H]3O[C@@H]3O[C@@H](C)[C@H](O)[C@@H](O)[C@H]3O)C[C@]12C [Re, ginsenoside Re] |  | < 2 |  | almost not affected by verapamil | almost not be affected by SLE | almost could not be transported by P-gp | almost not affected by verapamil |  |  |  | No transport difference |  | 2.36 |  |  |  | 
CC(C)=CCC[C@](C)(O[C@@H]1O[C@H](CO)[C@@H](O)[C@H](O)[C@H]1O)[C@H]1CC[C@]2(C)[C@@H]1[C@H](O)C[C@@H]1[C@@]3(C)CC[C@H](O)C(C)(C)[C@@H]3[C@@H](O)C[C@]12C [F1, ginsenoside F1] |  | < 2 |  | almost not affected by verapamil | almost not be affected by SLE | almost could not be transported by P-gp | almost not affected by verapamil |  |  |  | No transport difference |  | 1.99 |  |  |  | 
